Data on 10 compounds can be found in ChEMBL document CHEMBL2177005, “Mineralocorticoid receptor antagonists for the treatment of hypertension and diabetic nephropathy” (J Med Chem, 2012).

The structures appear in SMILES notation.

A short description of series [1]: Protein binding in plasma. The format is ADME, cell-free. To be noted: read-out: PPB (converted).
Series [2] concerns the target T1, Mineralocorticoid receptor (Rattus norvegicus, UniProt P22199).
T1 sequence (P22199 whole entry): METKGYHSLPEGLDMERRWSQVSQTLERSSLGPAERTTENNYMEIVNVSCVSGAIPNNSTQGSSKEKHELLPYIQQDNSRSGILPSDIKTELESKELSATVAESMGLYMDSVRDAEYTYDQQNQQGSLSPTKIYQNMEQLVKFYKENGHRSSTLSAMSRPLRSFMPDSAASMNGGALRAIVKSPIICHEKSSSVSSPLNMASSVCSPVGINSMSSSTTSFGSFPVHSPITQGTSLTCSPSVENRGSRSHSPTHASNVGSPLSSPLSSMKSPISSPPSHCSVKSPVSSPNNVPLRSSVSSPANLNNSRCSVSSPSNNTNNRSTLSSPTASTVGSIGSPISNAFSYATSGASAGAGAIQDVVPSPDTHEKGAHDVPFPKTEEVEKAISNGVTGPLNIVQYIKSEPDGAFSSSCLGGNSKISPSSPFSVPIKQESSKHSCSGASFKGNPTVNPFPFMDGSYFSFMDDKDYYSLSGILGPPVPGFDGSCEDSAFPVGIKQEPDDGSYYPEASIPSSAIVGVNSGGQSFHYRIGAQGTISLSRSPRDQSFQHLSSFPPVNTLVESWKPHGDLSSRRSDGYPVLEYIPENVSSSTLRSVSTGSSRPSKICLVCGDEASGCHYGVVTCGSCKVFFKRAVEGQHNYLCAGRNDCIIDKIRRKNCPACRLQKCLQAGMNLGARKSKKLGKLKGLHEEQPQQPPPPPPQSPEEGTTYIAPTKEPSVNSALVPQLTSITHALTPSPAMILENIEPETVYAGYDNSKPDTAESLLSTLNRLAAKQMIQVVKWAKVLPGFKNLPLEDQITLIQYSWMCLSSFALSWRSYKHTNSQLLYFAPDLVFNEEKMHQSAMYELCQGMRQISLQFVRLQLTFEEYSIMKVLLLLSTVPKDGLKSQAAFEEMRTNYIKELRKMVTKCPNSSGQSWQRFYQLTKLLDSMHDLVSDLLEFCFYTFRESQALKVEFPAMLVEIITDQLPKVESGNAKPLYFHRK
Description: Displacement of [3H]-aldosterone from rat mineralocorticoid receptor after 18 hrs by liquid scintillation counter analysis.

Series [3] has as its target T2, Mineralocorticoid receptor (Homo sapiens, UniProt P08235).
T2 sequence (P08235 whole entry): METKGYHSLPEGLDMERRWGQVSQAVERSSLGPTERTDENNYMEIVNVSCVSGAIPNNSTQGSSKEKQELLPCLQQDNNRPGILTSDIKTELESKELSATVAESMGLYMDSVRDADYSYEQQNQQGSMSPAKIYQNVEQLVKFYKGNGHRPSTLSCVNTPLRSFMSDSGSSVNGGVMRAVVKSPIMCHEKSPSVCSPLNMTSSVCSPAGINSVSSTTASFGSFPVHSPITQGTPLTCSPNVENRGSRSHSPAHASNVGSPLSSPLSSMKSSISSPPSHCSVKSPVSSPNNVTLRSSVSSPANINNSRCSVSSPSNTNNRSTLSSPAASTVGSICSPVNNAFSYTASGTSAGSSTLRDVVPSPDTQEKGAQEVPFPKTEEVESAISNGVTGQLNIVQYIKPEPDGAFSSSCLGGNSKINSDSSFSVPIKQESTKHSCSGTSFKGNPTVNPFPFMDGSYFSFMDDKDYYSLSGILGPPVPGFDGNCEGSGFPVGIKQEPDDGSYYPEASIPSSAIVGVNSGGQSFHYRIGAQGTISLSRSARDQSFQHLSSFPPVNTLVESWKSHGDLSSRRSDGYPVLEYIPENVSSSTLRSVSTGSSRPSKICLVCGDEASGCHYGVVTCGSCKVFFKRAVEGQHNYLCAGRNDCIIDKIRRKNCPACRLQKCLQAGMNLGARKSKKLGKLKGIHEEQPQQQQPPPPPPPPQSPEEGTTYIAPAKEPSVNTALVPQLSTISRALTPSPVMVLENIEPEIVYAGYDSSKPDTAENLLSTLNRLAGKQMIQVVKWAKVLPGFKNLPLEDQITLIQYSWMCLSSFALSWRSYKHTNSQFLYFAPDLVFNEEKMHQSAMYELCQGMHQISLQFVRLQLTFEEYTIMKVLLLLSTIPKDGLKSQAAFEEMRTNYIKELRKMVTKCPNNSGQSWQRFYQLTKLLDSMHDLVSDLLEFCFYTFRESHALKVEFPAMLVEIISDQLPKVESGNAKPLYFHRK
Description: Antagonist activity at mineralocorticoid receptor expressed in african green monkey COS7 cells after 18 hrs by luciferase reporter gene assay. The format is functional, cell-based, COS-7.

For series [4], the target named is T3, Progesterone receptor (Homo sapiens, UniProt P06401).
T3 sequence (P06401 whole entry): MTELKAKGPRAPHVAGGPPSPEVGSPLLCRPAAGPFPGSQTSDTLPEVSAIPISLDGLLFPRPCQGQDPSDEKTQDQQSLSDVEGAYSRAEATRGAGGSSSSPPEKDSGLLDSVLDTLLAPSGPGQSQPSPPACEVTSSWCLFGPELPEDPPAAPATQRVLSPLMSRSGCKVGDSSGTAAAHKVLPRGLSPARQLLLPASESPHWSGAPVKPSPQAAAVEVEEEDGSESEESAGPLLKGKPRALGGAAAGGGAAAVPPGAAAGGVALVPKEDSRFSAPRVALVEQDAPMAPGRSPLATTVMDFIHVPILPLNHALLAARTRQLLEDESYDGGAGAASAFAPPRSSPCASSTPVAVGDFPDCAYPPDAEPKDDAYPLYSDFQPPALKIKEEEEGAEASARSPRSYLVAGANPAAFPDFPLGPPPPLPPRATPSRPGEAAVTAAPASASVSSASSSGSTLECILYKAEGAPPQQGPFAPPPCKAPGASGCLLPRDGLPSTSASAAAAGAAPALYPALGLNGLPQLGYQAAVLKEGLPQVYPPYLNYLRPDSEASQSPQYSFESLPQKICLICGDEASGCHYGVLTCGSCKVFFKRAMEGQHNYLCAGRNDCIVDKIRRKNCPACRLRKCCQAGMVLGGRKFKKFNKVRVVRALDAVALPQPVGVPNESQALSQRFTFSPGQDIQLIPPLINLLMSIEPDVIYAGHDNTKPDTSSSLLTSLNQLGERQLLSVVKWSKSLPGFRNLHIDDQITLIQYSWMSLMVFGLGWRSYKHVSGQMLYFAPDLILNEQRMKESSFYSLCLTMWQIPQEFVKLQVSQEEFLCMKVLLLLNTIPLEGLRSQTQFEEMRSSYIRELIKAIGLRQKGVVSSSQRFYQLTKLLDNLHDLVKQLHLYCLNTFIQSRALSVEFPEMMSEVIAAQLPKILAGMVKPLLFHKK
Description: Antagonist activity at progesterone receptor. The format is functional.

Series [5] can be described thus: Binding affinity to Ca2+ channel L type by radioligand binding assay.
Series [6] concerns the target T3, Progesterone receptor. Description: Antagonist activity against progesterone receptor expressed in CHOK1 cells after 10 to 30 mins by luciferase reporter gene assay. The format is functional, cell-based, CHO-K1.
Series [7] concerns the target T2, Mineralocorticoid receptor. Description: Antagonist activity against human mineralocorticoid receptor expressed in CHOK1 cells after 10 to 30 mins by luciferase reporter gene assay. The format is functional, cell-based, CHO-K1.
The target of series [8] is T4, Glucocorticoid receptor (Homo sapiens, UniProt P04150).
T4 sequence (P04150 whole entry): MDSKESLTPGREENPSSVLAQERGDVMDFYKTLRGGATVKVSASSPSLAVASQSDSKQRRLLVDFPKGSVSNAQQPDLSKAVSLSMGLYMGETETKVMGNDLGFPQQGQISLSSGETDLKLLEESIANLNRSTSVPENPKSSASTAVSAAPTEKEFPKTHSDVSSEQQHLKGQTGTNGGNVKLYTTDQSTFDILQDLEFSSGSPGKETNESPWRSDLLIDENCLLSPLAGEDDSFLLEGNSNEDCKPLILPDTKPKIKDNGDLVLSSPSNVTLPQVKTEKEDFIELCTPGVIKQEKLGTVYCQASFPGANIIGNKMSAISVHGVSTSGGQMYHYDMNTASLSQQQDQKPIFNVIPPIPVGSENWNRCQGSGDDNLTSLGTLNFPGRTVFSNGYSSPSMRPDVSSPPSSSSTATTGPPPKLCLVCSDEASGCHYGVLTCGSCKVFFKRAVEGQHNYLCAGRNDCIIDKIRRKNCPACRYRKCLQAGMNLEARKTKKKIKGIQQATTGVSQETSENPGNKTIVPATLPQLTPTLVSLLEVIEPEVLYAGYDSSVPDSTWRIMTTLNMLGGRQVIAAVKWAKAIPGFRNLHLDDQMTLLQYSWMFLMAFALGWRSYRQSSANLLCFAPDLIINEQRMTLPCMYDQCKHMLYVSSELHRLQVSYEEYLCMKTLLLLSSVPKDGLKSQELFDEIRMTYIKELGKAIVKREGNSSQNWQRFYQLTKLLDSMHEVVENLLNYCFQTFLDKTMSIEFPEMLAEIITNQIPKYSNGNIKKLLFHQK
Description: Antagonist activity against glucocorticoid receptor expressed in CHOK1 cells after 10 to 30 mins by luciferase reporter gene assay. The format is functional, cell-based, CHO-K1.

Series [9] has as its target T5, Androgen receptor (Homo sapiens, UniProt P10275).
T5 sequence (P10275 whole entry): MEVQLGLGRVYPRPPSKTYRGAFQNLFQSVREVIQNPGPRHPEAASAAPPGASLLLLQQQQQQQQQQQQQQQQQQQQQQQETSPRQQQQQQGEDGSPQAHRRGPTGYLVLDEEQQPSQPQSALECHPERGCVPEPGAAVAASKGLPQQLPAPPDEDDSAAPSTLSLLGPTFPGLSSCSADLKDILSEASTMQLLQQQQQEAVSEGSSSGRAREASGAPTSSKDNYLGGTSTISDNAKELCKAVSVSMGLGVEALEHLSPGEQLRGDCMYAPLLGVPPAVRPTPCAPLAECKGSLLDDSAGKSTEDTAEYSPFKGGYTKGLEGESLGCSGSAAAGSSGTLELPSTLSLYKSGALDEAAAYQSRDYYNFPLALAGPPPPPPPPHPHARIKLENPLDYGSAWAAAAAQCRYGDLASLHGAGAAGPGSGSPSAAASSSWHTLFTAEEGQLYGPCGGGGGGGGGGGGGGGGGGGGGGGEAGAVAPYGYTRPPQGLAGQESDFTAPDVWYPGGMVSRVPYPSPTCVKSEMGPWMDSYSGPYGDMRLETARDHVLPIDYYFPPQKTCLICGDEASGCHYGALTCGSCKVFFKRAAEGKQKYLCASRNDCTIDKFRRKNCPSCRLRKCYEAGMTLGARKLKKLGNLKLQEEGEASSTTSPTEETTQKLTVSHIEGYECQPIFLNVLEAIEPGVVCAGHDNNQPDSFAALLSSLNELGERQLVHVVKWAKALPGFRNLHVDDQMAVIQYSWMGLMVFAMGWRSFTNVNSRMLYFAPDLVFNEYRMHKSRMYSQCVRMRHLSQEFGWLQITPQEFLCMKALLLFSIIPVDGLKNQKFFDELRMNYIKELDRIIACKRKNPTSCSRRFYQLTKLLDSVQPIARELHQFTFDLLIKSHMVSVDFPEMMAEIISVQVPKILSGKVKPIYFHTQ
Put plainly: Antagonist activity against androgen receptor expressed in CHOK1 cells after 10 to 30 mins by luciferase reporter gene assay. The format is functional, cell-based, CHO-K1.

In series [10] the target is T1, Mineralocorticoid receptor. Description: Binding affinity to rat mineralocorticoid receptor.
Series [11] concerns the target T1, Mineralocorticoid receptor. Put plainly: Displacement of [3H]Aldosterone C from rat mineralocorticoid receptor by liquid scintillation counter analysis.
Series [12] has as its target T4, Glucocorticoid receptor. Put plainly: Displacement of [3H]dexamethasone from human glucocorticoid receptor overexpressed in HEK293 cells by microbeta counting assay. The format is cell-based.
The target in series [13] is T2, Mineralocorticoid receptor. Put plainly: Displacement of [3H]aldosterone from human mineralocorticoid receptor overexpressed in HEK293 cells by microbeta counting assay. The format is cell-based.
Series [14] deals with T3, Progesterone receptor. Put plainly: Displacement of [3H]methyltrienolone from human progesterone receptor overexpressed in HEK293 cells by microbeta counting assay. The format is cell-based.
Series [15] deals with T5, Androgen receptor. Description: Displacement of [3H]-methyltrienolone from human androgen receptor overexpressed in HEK293 cells by microbeta counting assay. The format is cell-based.
For series [16], the target named is T2, Mineralocorticoid receptor. Put plainly: Antagonist activity at mineralocorticoid receptor. The format is functional.

Consider `COC(=O)[C@@H]1CC2=CC(=O)CC[C@]2(C)[C@@]23O[C@@H]2C[C@@]2(C)[C@@H](CC[C@@]24CCC(=O)O4)[C@H]13` [EPLERENONE], for which the fraction unbound in series [1] is 0.1.
Regarding `CC(=O)S[C@@H]1CC2=CC(=O)CC[C@]2(C)[C@H]2CC[C@@]3(C)[C@@H](CC[C@@]34CCC(=O)O4)[C@H]12` [SPIRONOLACTONE], the fraction unbound in series [1] was 0.51.
Consider `CC1(C)OC(=S)Nc2ccc(NS(=O)(=O)c3cccs3)cc21`, for which the IC50 in [2] was determined as 21 nM; in [3], 130 nM.
For `O=C1COc2ccc(C3=Nn4cnnc4SC3c3ccccc3)cc2N1` (configuration not stated), the concentration for half-maximal inhibition (IC50) against Progesterone receptor [4] was greater than 10000 nM.
In [5], `CCOc1ncc(C)c2c1[C@H](c1ccc(C#N)cc1OC)C(C(N)=O)=C(C)N2` [FINERENONE] had an IC50 greater than 1000 nM.
In the case of `CCOC(=O)C1=C(C)NC(C)=C(C(C)=O)[C@H]1c1cccc2c(=O)cc(C)oc12`, the IC50 at Progesterone receptor [6] came out at 9020 nM; in series [7], 28 nM; on Glucocorticoid receptor [8], 5470 nM; against Androgen receptor [9] it was 4440 nM.
Consider `CC1(C)Oc2cc(NS(C)(=O)=O)ccc2N(c2ccc(F)cc2)C1=O` [MT-3995], for which the IC50 in series [10] is less than 500 nM.
With `COc1cc(C(=O)Nc2ccc(-c3ccccc3OC(F)(F)F)c(CCN(C)C3CC3)c2)ccc1S(N)(=O)=O`, the IC50 in series [11] was found to be 22 nM.
For `O=c1[nH]c2cc(/C=C3\c4ccccc4COc4cc(F)ccc43)ccc2n1[C@H]1C[C@H]2COCCN2C1`, the Ki turned out to be 669 nM at Glucocorticoid receptor [12], 0.4 nM in series [13], 478 nM on Progesterone receptor [14] and 1170 nM at Androgen receptor [15].
In [16], `Cc1c(C(=O)Nc2ccc(S(C)(=O)=O)cc2)cn(CCO)c1-c1ccccc1C(F)(F)F` showed an IC50 of 2.4 nM.
